Non-standard residues stand in square brackets, D forms with d. No end group written: not given here. *: point of attachment. FITC = O=C1OC2(c3ccc(O)cc3Oc3cc(O)ccc32)c2ccc(NC(=S)*)cc21; pY = N[C@@H](Cc1ccc(OP(=O)(O)O)cc1)C(=O)O
Experiments:
[1] = test system: GVHD and B-ALL-luc tumor cells; test: Allo-HSCT GVHD/GVL model with donor T cells transduced with SLP76pTYR-pCherry virus; format: in vivo, BALB/c mice; conditions: murine allo-HSCT major mismatch model
Description: GVHD and GVL studies: Recipient BALB/c mice (MHC haplotype d) as recipients were lethally irradiated with 800 cGy total in two split doses of 400cGy. Bone marrow cells were harvested from mouse legs, and total bone marrow cells were incubated with CD90.2 beads, using 100 ul of beads per mouse according to manufacturer protocols. NK cells were depleted and by DX5 beads, and CD122+ cells with anti PE beads. Recipient mice were injected intravenously with 10×10^6 T cell-depleted bone marrow (TCDBM) cells, with or without donor T cells, either 1×10^6 or 2×10^6 FACS-sorted CD8^+, CD4^+ T cells, or CD8^+ and CD4^+ cells mixed at a 1:1 ratio from WT or SLP76 Y145FKI mice. For GVL experiments, primary B cell acute lymphoblastic leukemia (B-ALL, syngeneic to BALB/c and allogeneic to C57BI/6) blasts were transduced with luciferase as described previously (Cheng et al., 2016), and 2×10^5 luciferase-expressing B-ALL-luc cells were used per recipient mouse unless otherwise specified. […] The bioluminescence data were analyzed and quantified with Living Image Software (Xenogen) and Igor Pro (Wave Metrics, Lake Oswego, OR). Recipient animals were evaluated for clinical score 2-3 times per week by a scoring system that sums changes in 6 clinical parameters: (1) weight loss, (2) posture, (3) activity, (4) fur texture, (5) diarrhea and (6) skin integrity (Cooke et al., 1996). […]

[2] = test system: T cells from GVHD patient blood samples; test: T cells from GVHD patient blood samples treated with SLP76pTYR; format: cell-based, human

Substance: FITC Dye ^132NEEEEAPVEDDADpYEPPPSNDEEA^155-TAT ({FITC}-NEEEEAPVEDDAD[pY]EPPPSNDEEAGRKKRRQRRRPQ) [SLP76pTYR]
- GVHD and GVL outcome (summary statement) [1]: tumor clearance without inducing GVHD
- GVHD and GVL outcome (summary statement) ([1]; listed as SLP76145pTYR): significantly reduced GVHD pathophysiology but maintained GVL function
- IFN-γ production [2]: significantly reducing IFN-γ and TNF-αproduction
- TNF-α production [2]: significantly reducing IFN-γ and TNF-αproduction
- development of FoxP3+ regulatory T cells [2]: enhances the development of FoxP3^+ regulatory T cells

From US12729381B2, “Methods and compositions for inactivating interleukin-2-inducible t-cell kinase (ITK)” (priority 2020, dated 2026)
